Results taken from patent US10487045B2, “Adamantane derivative and use thereof” (TOHOKU UNIVERSITY, priority 2016, dated 2019).

What was measured:
[1] = system: WT mice administered with corticosterone; assay: Anxiety-related behavioral tests (elevated plus-maze, light/dark, marble burying, open field, fear conditioning) in WT mice administered with corticosterone; format: in vivo; conditions: WT mice + corticosterone 5 mg/kg; TP-014 1 mg/kg oral once a day for 2 weeks; all five tests
Description: Using WT mice (C57BL/6J, Japan SLC, two months old) administered with corticosterone (dose of 5 mg/kg was administered once a day for 2 weeks); and Kir6.1 defective mice administered with corticosterone, as disease model mice showing anxiety-like symptoms, five behavioral tests regarding anxiety-related behavior were conducted. Note that, the Kir6.1 defective mice were obtained from Professor Susumu Seino, School of Medicine of Kobe University (Miki T et al., Nature Medicine 2002, 8, 466-472).
To the WT mice and Kir6.1 defective mice administered with corticosterone, TP-014 (1 mg/kg) was administered via the oral route once a day for 2 weeks (chronic treatment). As a result, it was confirmed that a significant anxiety symptom acceleration improving effect was obtained. […]
The time until a mouse placed in a black box (dark place) feels anxiety to light and comes out of the box to a bright place) was measured. […]
In the cage for housing a mouse is filled with wood chip bedding and 20 marbles are placed such that a mouse can see them. […] The number of marbles buried and hidden in the wood chip bedding is counted. […]
Using the same test apparatus as in the light/dark test method, a mouse is placed in a dark place, and then, sound (treble) is produced for 30 seconds and thereafter electrical stimulation is given for 3 seconds. […] The immobility time of the mouse is measured. […]

Kir6.2 channel [2] = target: T1, Kir6.2 channel (Mus musculus, UniProt Q61743); assay: Patch-clamp measurement of outward potassium current in Kir6.2 channel-overexpressing cells; format: cell-based; conditions: 10 nM TP-014, Kir6.2 channel-overexpressing cells, membrane potential changed toward a plus side
T1 construct: expressed in transfected cells; host or cells: Neuro2A (N2A) cells, transient transfection with pcDNA3.1-Kir6.2 (gift of Dr. Toru Ishizuka, Tohoku University)
T1 sequence (Q61743 1-390): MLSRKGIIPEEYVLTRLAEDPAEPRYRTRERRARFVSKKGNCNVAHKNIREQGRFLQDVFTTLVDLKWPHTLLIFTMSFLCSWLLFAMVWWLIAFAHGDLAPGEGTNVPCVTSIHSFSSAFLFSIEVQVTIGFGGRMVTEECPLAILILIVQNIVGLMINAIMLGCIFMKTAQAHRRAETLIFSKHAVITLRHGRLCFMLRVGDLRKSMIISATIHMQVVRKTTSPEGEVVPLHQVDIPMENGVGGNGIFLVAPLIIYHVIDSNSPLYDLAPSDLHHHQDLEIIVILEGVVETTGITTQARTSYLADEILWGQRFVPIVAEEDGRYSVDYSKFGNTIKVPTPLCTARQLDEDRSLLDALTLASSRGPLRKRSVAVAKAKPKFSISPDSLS
Description: Using Kir6.2 channel-overexpressing cells obtained in Test Example 1, potassium current flowing outside from the cells was measured by an ordinary patch-clamp method. ATP-sensitive potassium channel (Kir6.2 channel) was localized in the cell membrane of the nerve cells. If the channel is inhibited and closed, the threshold of the nerve cell membrane rises to produce a state analogous to the state where an action potential is temporarily generated, with the result that potassium current flows out from cells outside and, in place, calcium current flows into the cells from outside. […] This was confirmed by applying immunoblotting (the same conditions as in Test Example 1 were employed except that anti-Kir6.2 channel antibody, n=5) with an anti-Kir6.2 channel antibody (prepared based on a customary method) to Kir6.2 channel-overexpressing cells (prepared by the aforementioned method).

Kir6.2 channel [3] = target: T1, Kir6.2 channel; assay: CaMKII activation in N2A cells overexpressing Kir6.2 channel (immunoblotting, anti-phosphorylated CaMKII antibody); format: cell-based; conditions: 10 nM, one hour, Kir6.2 channel overexpressing N2A cells; control without compound = 100%
Description: A plasmid vector having cDNA of Kir6.2 channel inserted therein: pcDNA3.1-Kir6.2, was obtained from Dr. Toru Ishizuka (Graduate School of Life Sciences, Tohoku University). The plasmid vector, pcDNA3.1-Kir6.2, was conditioned in accordance with the manual attached to GenElute HP Plasmid Maxiprep Kit (manufactured by Sigma-Aldrich). A culture solution (composition: DMEM culture solution 450 mL containing 50 ml of bovine serum and 100 units of penicillin/streptomycin) of Neuro2A cells (N2A cells, the National Instituted of Biomedical Innovation) cultured in DMEM culture solution (Gibco) was exchanged with Opti-Mem (Gibco)(containing Lipofectamine R2000 (1 μg/1 ml)) containing pcDNA3.1-Kir6.2 (1 μg/μl) conditioned above, and cultured for 5 hours to obtain N2A cells overexpressing Kir6.2 channel. Exchange with the DMEM culture solution was again performed and culture was carried out for two days. Thereafter, memantine (manufactured by Sigma-Aldrich) and the compound of the present invention (n=4 per group) were added in the culture solutions (DMEM, Gibco) so as to obtain a concentration of 10 nM based on the culture solution, and the culture solutions were allowed to stand still for one hour. Thereafter, Kir6.2 channel overexpressing N2A cells were collected and an SDS sample buffer was added to the N2A cells to prepare a suspension. The suspension was subjected to immunoblotting by use of an anti-phosphorylated CaMKII antibody (Fukunaga K et al., J. Biol. Chem. 1992, 267, 22527-22533) as a primary antibody and an anti-rabbit IgG antibody (manufactured by SouthernBiotech) as a secondary antibody (other conditions except the aforementioned antibodies were the same as those employed in ordinary immunoblotting), to investigate activation of CaMKII. As a result, in TP-009, TP-010, TP-011, TP-012, TP-014, TP-015, TP-048, TP-049, TP-050, TP-051, TP-052, TP-053, bands showing a reaction with the antibody against phosphorylated CaMKII were obtained. It was confirmed that activation of CaMKII is enhanced. In FIG. 1, the result of the case (control: c) where a test compound was not added is regarded as 100%. CaMKII activation of the cases containing memantine, TP-009, TP-010, TP-011, TP-012, TP-014, TP-015, TP-048, TP-049, TP-050, TP-051, TP-052, TP-053 (corresponding to M, 9, 10, 11, […], 15, 48, 49, 50, 51, 52 and 53, respectively) were shown in FIG. 1.

outward potassium current (Kir6.2 channel [2]): suppressed | activation of CaMKII (phosphorylated CaMKII bands) (Kir6.2 channel [3]): enhanced
Structure (SMILES): O=C(N[C@@H](c1ccccc1)[C@H]1[C@H]2C[C@@H]3C[C@](Cl)(C2)C[C@@]1(OC(=O)C(F)(F)F)C3)C(F)(F)F [TP-014, (1S,2R,3S,5S,7S)-5-chloro-2-((R)-phenyl(2,2,2-trifluoroacetamido)methyl)adamantan-1-yl 2,2,2-trifluoroacetate]
acceleration of anxiety-like symptom [1]: improve acceleration of anxiety-like symptom
